Assay results from ChEMBL document CHEMBL3272026, “On the structure of medicinal chemistry” (J Med Chem, 1976).

What was measured:
Escherichia coli = experiment: Antimicrobial activity against Escherichia coli; format: functional
[1] = Lipophilicity, log P of the compound; format: physicochemical; settings: octanol/water
Mollusca = experiment: Increase in mollusk membrane potential assessed as concentration required to raise 20 mV; format: functional, cell membranes
[2] = target: Alcohol dehydrogenase (Homo sapiens) (UniProt P07327+P08319+P00325+P00326+P40394+P11766+P28332); experiment: Binding affinity to alcohol dehydrogenase (unknown origin); format: protein assay

log(1/K) [2] | Compound | log(1/C) (Escherichia coli) | log(1/C) (Mollusca) | other results
 | CCOc1cccc(NS(=O)(=O)c2ccc(N)cc2)c1 | 4.88 |  | 
 | Cc1cccc(Nc2ccccc2C(=O)O)c1C [MEFENAMIC ACID] |  | 3.48 | logP ([1]; read-out: logP): 0.28
-2.6 | NC(=O)c1ccc(F)cc1 |  |  | 
 | O=C(O)c1cc(Cl)cc(Cl)c1O |  | 3.48 | logP [1]: 0.23
 | Nc1ccc(S(=O)(=O)Nc2ccc(Cl)cc2)cc1 | 4.8 |  | 
-2.6 | NC(=O)c1ccc([N+](=O)[O-])cc1 |  |  | 
